How the values were obtained:
[1] = test system: AHR-regulated gene CYP1A1 in human monocytic U937 cell line; test: AHR-regulated CYP1A1 expression in U937 cells (qPCR, kynurenic acid stimulated); type: cell-based; conditions: U-937, 200 μM KA, 16 hours, CYP1A1 vs GAPDH, read-out: Cyp ANATAG mode assay: IC50
Experimental: To evaluate the AHR inhibitory activity of the test compounds, quantitative PCR analysis was used to determine expression level of the AHR-regulated gene CYP1A1 in a human monocytic U937 cell line upon stimulation of 200 μM kynurenic acid (KA) in the absence or presence of AHR inhibitor. U937 cells were seeded at a concentration of 5×10^5 cells/well in 200 μL of growth medium in 96-well cell culture microplates. CYP1A1 expression was induced with 200 μM KA (positive control) in the absence or presence of the test compounds for 16 hours. Human U937 cells were typically incubated with eight different concentrations of test compounds (typical dilution: […], 3.2 nM, 16 nM, 80 nM, 400 nM, 2 μM, 10 μM) and analyzed in duplicate on the same cell culture microplate. After stimulation, the media was removed, the cell RNA was isolated using RNeasy Mini Kit (Qiagen, 74104) and reverse-transcribed to cDNA using PrimeScript RT reagent Kit (Perfect Real Time) (TaKaRa, RR037A). Unstimulated cells were used as the negative control. Taqman probes for human CYP1A1 (Hs01054797_g1) and human GAPDH (Hs02786624_g1) were used to analyze fold expression of CYP1A1 of GAPDH.

[2] = biological target: T1, Human Aryl Hydrocarbon Receptor (AhR) (Homo sapiens, UniProt P35869); test: AHR antagonist reporter assay in human cell line (INDIGO AhR Reporter Assay System, kynurenic acid activated); type: cell-based; conditions: 200 μM kynurenic acid, 24 hours, luciferase; read-out: AhR Reporter Assay KA Antagonist Mode: IC50
T1 construct: purchased INDIGO Bioscience #1B06001-32; host or cells: AhR Reporter Cell (kit's proprietary reporter cells)
T1 sequence (P35869 11-848): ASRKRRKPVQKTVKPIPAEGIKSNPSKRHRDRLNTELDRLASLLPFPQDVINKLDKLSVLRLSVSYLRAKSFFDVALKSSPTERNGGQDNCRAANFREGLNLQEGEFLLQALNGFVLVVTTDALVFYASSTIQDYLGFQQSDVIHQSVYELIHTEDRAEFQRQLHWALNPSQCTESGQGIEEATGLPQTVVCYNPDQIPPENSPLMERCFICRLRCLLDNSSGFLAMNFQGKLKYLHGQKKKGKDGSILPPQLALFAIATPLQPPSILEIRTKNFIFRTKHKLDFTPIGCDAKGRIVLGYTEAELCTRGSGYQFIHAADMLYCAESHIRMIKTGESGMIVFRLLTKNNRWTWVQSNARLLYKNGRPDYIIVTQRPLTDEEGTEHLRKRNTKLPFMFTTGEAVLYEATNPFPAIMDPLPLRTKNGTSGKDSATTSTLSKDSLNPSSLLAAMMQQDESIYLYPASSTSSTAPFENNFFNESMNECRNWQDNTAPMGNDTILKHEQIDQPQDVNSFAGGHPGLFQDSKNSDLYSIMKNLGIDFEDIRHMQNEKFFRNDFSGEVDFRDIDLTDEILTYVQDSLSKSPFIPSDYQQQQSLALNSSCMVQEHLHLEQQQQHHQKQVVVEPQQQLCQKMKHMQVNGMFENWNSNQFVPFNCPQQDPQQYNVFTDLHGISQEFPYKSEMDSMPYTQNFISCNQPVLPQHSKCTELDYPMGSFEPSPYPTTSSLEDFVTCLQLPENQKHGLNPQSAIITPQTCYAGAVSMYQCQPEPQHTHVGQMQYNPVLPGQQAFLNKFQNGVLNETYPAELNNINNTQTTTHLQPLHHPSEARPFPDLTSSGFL
Experimental: The AhR reporter assay was performed following the protocol of the Human Aryl Hydrocarbon Receptor (AhR) Reporter Assay System (INDIGO Bioscience, #1B06001-32). AhR Reporter Cell was thawed and pre-incubated in Cell Recovery Medium (CRM) for 6 hours. The media was then removed and the cells were incubated with Compound Screening Medium (CSM) supplemented with 200 μM kynurenic acid for 24 hours in the absence (negative control) or presence of increasing concentrations of test compounds (typical dilution: […], 3.2 nM, 16 nM, 80 nM, 400 nM, 2 μM, 10 μM in duplicates). For positive inhibition control, cells activated with 200 μM kynurenic acid were incubated in the presence of literature AHR antagonists; alternatively un-activated cells were used as positive inhibition control. Following 24 hours incubation, the media was removed and Luciferase Detection Reagent (LDR) added. The firefly luciferase activity was quantified using a plate reader. Results were normalized by positive and negative controls.

IC50 [1] [nM]	IC50 [2] [nM]	Structure (SMILES)
< 100	< 100	O=C(N[C@H]1CCCCNC1=O)c1cc(-c2ccc(Cl)cc2)nn(-c2cccc(F)c2)c1=O [28 - *stereo-pure]
< 100	< 100	Cn1cc(-n2nc(-c3ccc(Cl)cc3)cc(C(=O)N[C@H]3CCCCNC3=O)c2=O)cn1 [59 - *stereo-pure]
100 to 400	100 to 400	CNC(=O)C(C)NC(=O)c1cc(-c2ccc(Cl)cc2)nn(-c2cccc(F)c2)c1=O (stereo not drawn) [Compound 12]
100 to 400	< 100	CC(NC(=O)c1cc(-c2ccc(Cl)cc2)nn(-c2cccc(F)c2)c1=O)C(=O)N(C)C (stereo not drawn) [Compound 13]
< 100	< 100	COCC(C)NC(=O)c1cc(-c2ccc(Cl)cc2)nn(-c2cnn(C)c2)c1=O (stereo not drawn) [Compound 32]
< 100	100 to 400	COC[C@H](C)NC(=O)c1cc(-c2ccc(Cl)cc2)nn(-c2cn[nH]c2)c1=O [Compound 62]
< 100	< 100	COC[C@H](C)NC(=O)c1cc(-c2ccc(C(F)(F)F)cc2)nn(-c2cnn(C)c2)c1=O [Compound 70]
< 100	< 100	COC[C@H](C)NC(=O)c1cc(-c2ccc(C(=O)N(C)C)cc2)nn(-c2cnn(C)c2)c1=O [Compound 90]
< 100	< 100	CN(C)C(=O)C(C)(C)NC(=O)c1cc(-c2ccc(Cl)cc2)nn(-c2cnn(C)c2)c1=O [Compound 94]
< 100	< 100	CNC(=O)C(C)(C)NC(=O)c1cc(-c2ccc(Cl)cc2)nn(-c2cnn(C)c2)c1=O [Compound 95]
< 100	< 100	COC[C@H](C)NC(=O)c1cc(-c2ccc(Cl)cc2)nn(-c2cccc(F)c2)c1=O [Compound 97]
< 100	< 100	CNC(=O)[C@H](C)NC(=O)c1cc(-c2ccc(Cl)cc2)nn(-c2cccc(F)c2)c1=O [Compound 98]
< 100	< 100	C[C@H](NC(=O)c1cc(-c2ccc(Cl)cc2)nn(-c2cccc(F)c2)c1=O)C(=O)N(C)C [Compound 99]
< 100	< 100	CNC(=O)[C@H](C)NC(=O)c1cc(-c2ccc(Cl)cc2)nn(-c2cnn(C)c2)c1=O [Compound 100]
100 to 400	< 100	COC[C@H](C)NC(=O)c1cc(-c2ccc3c(c2)OCC3)nn(-c2cnn(C)c2)c1=O [Compound 112]
< 100	< 100	COC[C@H](C)NC(=O)c1cc(-c2ccc3cc(OC)ccc3c2)nn(-c2cnn(C)c2)c1=O [Compound 113]
< 100	< 100	COC[C@H](C)NC(=O)c1cc(-c2ccc3cc(F)ccc3c2)nn(-c2cnn(C)c2)c1=O [Compound 120]
< 100	< 100	COC[C@H](C)NC(=O)c1cc(-c2ccc3c(C)nn(C)c3c2)nn(-c2cnn(C)c2)c1=O [Compound 123]
< 100	< 100	COC[C@H](C)NC(=O)c1cc(-c2cnc(-c3ccc(Cl)cc3)nc2)nn(-c2cnn(C)c2)c1=O [Compound 139]
< 100	< 100	C[C@H](NC(=O)c1cc(-c2ccc(OC(F)(F)F)cc2)nn(-c2cnn(C)c2)c1=O)C(=O)N(C)C [Compound 146]
< 100	< 100	C[C@H](NC(=O)c1cc(-c2ccc(-c3ccc(Cl)cc3)cc2)nn(-c2cnn(C)c2)c1=O)C(=O)N(C)C [Compound 147]
< 100	< 100	C[C@@H](CO)NC(=O)c1cc(-c2ccc(-c3ccc(Cl)cc3)cc2)nn(-c2cnn(C)c2)c1=O [Compound 148]

IC50 [1] [nM]	IC50 [2] [nM]	Structure (SMILES)
< 100	< 100	C[C@H](NC(=O)c1cc(-c2ccc(C(F)(F)F)cc2)nn(-c2cnn(C)c2)c1=O)C(=O)N(C)C [Compound 150]
< 100	< 100	COC[C@H](C)NC(=O)c1cc(-c2cc3ccccc3cn2)nn(-c2cnn(C)c2)c1=O [Compound 153]
100 to 400	< 100	COC[C@H](C)NC(=O)c1cc(-n2cc(-c3ccc(Cl)cc3)cn2)nn(-c2cnn(C)c2)c1=O [Compound 155]
< 100	< 100	COC[C@H](C)NC(=O)c1cc(-c2ccc(-c3ccc(Cl)cc3)nc2)nn(-c2cnn(C)c2)c1=O [Compound 156]
< 100	< 100	C[C@@H](CO)NC(=O)c1cc(-c2ccc(-c3ccc(Cl)cc3)nc2)nn(-c2cnn(C)c2)c1=O [Compound 157]
< 100	< 100	C[C@@H](CO)NC(=O)c1cc(-n2cc(-c3ccc(Cl)cc3)cn2)nn(-c2cnn(C)c2)c1=O [Compound 161]
< 100	< 100	C[C@@H](CO)NC(=O)c1cc(-c2cnc(-c3ccc(Cl)cc3)nc2)nn(-c2cnn(C)c2)c1=O [Compound 163]
< 100	< 100	CN1CCCC[C@H](NC(=O)c2cc(-c3ccc(C(F)(F)F)cc3)nn(-c3cnn(C)c3)c2=O)C1=O [Compound 164]
< 100	< 100	CN1CCCC[C@H](NC(=O)c2cc(-c3ccc(OC(F)(F)F)cc3)nn(-c3cnn(C)c3)c2=O)C1=O [Compound 165]
< 100	< 100	CN(C)C(=O)C(C)(C)NC(=O)c1cc(-c2ccc(C(F)(F)F)cc2)nn(-c2cnn(C)c2)c1=O [Compound 167]
100 to 400	< 100	CN(C)C(=O)C(C)(C)NC(=O)c1cc(-c2ccc(OC(F)(F)F)cc2)nn(-c2cnn(C)c2)c1=O [Compound 168]
< 100	< 100	CNC(=O)[C@H](C)NC(=O)c1cc(-c2ccc(C(F)(F)F)cc2)nn(-c2cnn(C)c2)c1=O [Compound 169]
	> 400	C[C@@H](CO)NC(=O)c1cc(-c2ccc(C(=O)N(C)C)cc2)nn(-c2cccc(F)c2)c1=O [Compound 179]
	< 100	CNC(=O)[C@H](C)NC(=O)c1cc(-c2ccc(C(=O)N(C)C)cc2)nn(-c2cccc(F)c2)c1=O [Compound 180]
	< 100	C[C@H](NC(=O)c1cc(-c2cnc(-c3ccc(Cl)cc3)nc2)nn(-c2cnn(C)c2)c1=O)C(=O)N(C)C [Compound 182]
	< 100	C[C@@H](CO)NC(=O)c1cc(-c2cnc(-c3ccccc3)nc2)nn(-c2cnn(C)c2)c1=O [Compound 187]
	> 400	C[C@H](NC(=O)c1cc(-n2ncc(-c3ccc(Cl)cc3)n2)nn(-c2cnn(C)c2)c1=O)C(=O)N(C)C [Compound 188]
	> 400	C[C@H](NC(=O)c1cc(-n2cc(-c3ccc(Cl)cc3)nn2)nn(-c2cnn(C)c2)c1=O)C(=O)N(C)C [Compound 189]
	> 400	CNC(=O)[C@H](C)NC(=O)c1cc(-n2ncc(-c3ccc(Cl)cc3)n2)nn(-c2cnn(C)c2)c1=O [Compound 190]
	> 400	C[C@@H](CO)NC(=O)c1cc(-c2ccc(-c3ccc4ncccc4c3)nc2)nn(-c2cnn(C)c2)c1=O [Compound 196]
	< 100	C[C@@H](CO)NC(=O)c1cc(N2CCN(c3ccccc3F)CC2)nn(-c2cnn(C)c2)c1=O [Compound 209]
	< 100	C[C@@H](CO)NC(=O)c1cc(N2CCN(c3cccc(F)c3)CC2)nn(-c2cnn(C)c2)c1=O [Compound 210]

Source: patent US20240351988A1, “ARYL HYDROCARBON RECEPTOR MODULATORS AND THEIR USE IN THE TREATMENT OF DISEASES AND DISORDERS” (Allianthera (Suzhou) Biopharmaceutical Co., Ltd., priority 2021, published 2024)
